Source: patent EP1928474B1, “USE OF GLUCOSYLATED HYDROXYSTILBENES FOR THE PREVENTION AND TREATMENT OF EYE PATHOLOGIES” (Tubilux Pharma S.P.A., priority 2005, dated 2007)

Experiments:
[1] = system: fibroblasts of normal corneal origin; experiment: Differentiation of TGF-β-stimulated fibroblasts of normal corneal origin into myofibroblasts, α-SMA expression; type: cell-based
Source text: As reported in detail in the experimental section below, piceide has - unlike resveratrol - unexpectedly proven to be capable of modulating the capacity of TGF-β to cause fibroblast differentiation into myofibroblasts.

hTERT fibroblasts [2] = experiment: Toxicity for hTERT fibroblasts at the doses assayed; conditions: doses of the differentiation study, 5 µg/ml
iNOS = iNOS production by fibroblasts of normal corneal origin stimulated with IL-1; type: cell-based; conditions: equal doses
Source text: As will be illustrated in greater detail in the experimental section below, piceide - at non-toxic levels - blocks iNOS production and its activity is correlated to the dose. […] This different activity is probably due to the different chemical structure of the two molecules and to the consequent different biological characteristics, among which the greater bioavailability of piceide at the cell level is important. Another anti-inflammatory effect of piceide, linked to what has been said above, lies in its capacity to inhibit cyclooxygenase synthesis and thus the synthesis and release of pro-inflammatory prostaglandins.

[3] = system: inducible nitric-synthesase oxide (iNOS); experiment: iNOS production by hTERT fibroblasts stimulated with cytokines (IL-1 + IFN-γ), iNOS-positive cells by flow cytometry; type: cell-based, human; conditions: for number of iNOS-positive fibroblasts: pre-incubation at 1.25 - 2.5 - 5 µg/ml, then IL-1 3 ng/ml + IFN-γ 250 U/ml, 48 h, Figure 1
Description: The study aimed at determining the effects of treatment with piceide and resveratrol on the inducible nitric-synthesase oxide (iNOS) by corneal fibroblasts immortalised with human Telomerase Reverse Transcriptase (hTERT fibroblasts), stimulated with interferon-γ (IFN-γ) and interleukine-1 (IL-1).
Some hTERT fibroblasts were maintained in a DMEM culture medium. They were subsequently re-suspended at a concentration of 1x10^6 and placed on 24 mm-well plates. The cells were incubated at a temperature of 37°C with piceide or resveratrol at doses of 1.25 - 2.5 - 5 µg/ml. After 15 minutes the following were added to the wells containing the cells: IL-1 at a concentration of 3 ng/ml, and IFN-γ at a concentration of 250 U/ml. After a further 48 h of incubation, the fibroblasts were washed and re-suspended in PBS at a concentration of 1x10^6, in order to determine the iNOS-positive cells by means of flow cytometry.
The cells treated in the aforesaid way were permeabilised by treatment with 70% ethanol and then labelled with 5 µg/ml of a human anti-iNOS antibody labelled with FITC. After; colouring, the cells were fixed in paraformaldehyde and analysed by means of a FACScan cytofluorimeter.

hTERT fibroblasts [4] = experiment: Differentiation of TGF-β-stimulated hTERT fibroblasts into myofibroblasts, α-SMA-positive cells by flow cytometry; type: cell-based, human; conditions: 5 µg/ml; for percentage of cells capable of expressing α-SMA: sub-optimal dose (0.1 ng/ml) of TGF-β, Figure 2
Description: The study aimed at determining the effects of piceide treatment on the differentiation of corneal fibroblasts immortalised with human inverse telomerase transcriptase (hTERT fibroblasts) stimulated with sub-optimal, optimal or above-optimal doses of TGF-β. Fibroblast differentiation into myofibroblasts was determined by examining whether there was any α-smooth muscle actin (α-SMA).
Some hTERT fibroblasts maintained in a DMEM culture were re-suspended at a concentration of 1x10^6 and placed on 24mm-well plates. The cells were incubated at a temperature of 37°C with piceide or resveratrol at doses of 5 µg/ml. After 24 h the cells were stimulated with optimal (1ng/ml), sub-optimal (0.1 ng/ml) and above-optimum (10 ng ml) doses of TGF-β. After 3, 5 and 10 days of incubation, the fibroblasts were washed and re-suspended in PBS at a concentration of 1x10^6, in order to determine the α-SMA-positive cells by means of flow cytometry.
The cells treated in the aforesaid way were permeabilised by treatment with 70% ethanol and then labelled with 5µg/ml of a human anti-α-SMA antibody labelled with FITC. After colouring, the cells were fixed in paraformaldehyde and analysed by a means of a FACScan cytofluorimeter.

[5] = system: human liver myofibroblasts; conditions: literature; cited from earlier work

Structure (SMILES) | TGF-β activity assessed by α-SMA expression ([1]; fibroblasts of normal corneal origin, sub-optimal concentration of TGF-β) | α-SMA expression ([1]; normal fibroblasts, above-optimal concentration of TGF-β) | toxicity (hTERT fibroblasts [2]) | inhibition of iNOS production compared to resveratrol (iNOS) | decrease in iNOS-positive fibroblasts compared to resveratrol ([3]; equal doses 1.25 - 2.5 - 5 µg/ml, differences statistically significant at each point) | number of iNOS-positive fibroblasts [3] | percentage of α-SMA+ cells (hTERT fibroblasts [4]; above-optimal dose (10 ng/ml) of TGF-β, 5th day, Figure 4) | percentage of α-SMA+ cells (hTERT fibroblasts [4]; above-optimal dose (10 ng/ml) of TGF-β, 10th day, Figure 4) | percentage of α-SMA-positive cells (hTERT fibroblasts [4]; optimal dose (1 ng/ml) of TGF-β, all three time intervals (3, 5, 10 days), Figure 3) | percentage of cells capable of expressing α-SMA (hTERT fibroblasts [4]; 5th day) | percentage of cells capable of expressing α-SMA (hTERT fibroblasts [4]; 10th day) | percentage of cells capable of expressing α-SMA (hTERT fibroblasts [4]; 3 days, compared to non-treated) | effect on liver myofibroblasts [5] | percentage of α-SMA+ cells (hTERT fibroblasts [4]; above-optimal dose of TGF-β, time not stated) | percentage of α-SMA+ cells (hTERT fibroblasts [4]; optimal dose of TGF-β, time not stated) | percentage of α-SMA+ cells (hTERT fibroblasts [4]; sub-optimal dose of TGF-β, time not stated) | α-SMA expression [5]
OC[C@H]1O[C@@H](Oc2cc(O)cc(/C=C/c3ccc(O)cc3)c2)[C@H](O)[C@@H](O)[C@@H]1O [piceide, resveratrol-3-O-β-mono-D-glucoside] | increase growth factor activity | decrease in α-SMA expression | does not appear toxic | more effective | greater | dose-dependent decrease | percentage decrease in fibroblasts which was already significant | brought the number of fibroblasts back to physiological conditions | did not lead to any significant percentage variations | decreased, although still remaining statistically significant | no longer any significant percentages of cells able to express α-SMA | statistically significant increase | did not show any significant effects |  |  |  | 
Oc1ccc(/C=C/c2cc(O)cc(O)c2)cc1 [resveratrol, reference compound] |  |  |  |  |  | decrease |  |  |  |  |  |  | able to deactivate human liver myofibroblasts | did not lead to any statistically significant variation | did not lead to any statistically significant variation | did not lead to any statistically significant variation | reduction
Oc1cc(O)cc(/C=C/c2ccc(O)c(O)c2)c1 [trans-piceatannol, trans-3,4',3',5-tetrahydroxystilbene] |  |  |  |  |  |  |  |  |  |  |  |  | neither trans-piceide nor another hydroxystilbene - trans-piceatannol (trans-3,4',3',5-tetrahydroxystilbene) - have shown any effect |  |  |  | 
